*1 amine or outer side, *2 acyl side, *3 side chain or, on linkers, in order; H or OH if unused. Where a SMILES comes first, the peptide text is derived from it. Bridges are numbered along the chain shown (N, C = ends). [ ]: non-standard residue; d: D form. The star is where a group is joined. Ethylenediamine = C(CN[*:2])N[*:1]; X1 = O=C(CC1(S[*:2])CCCCC1)[*:1]; NH(CH2)4NH2 = NCCCCN*; NHCH2CH2OH = OCCN*; NHBu = CCCCN*
Assays:
[1] = system: antidiuretic response to arginine vasopressin; assay: Antagonism of the antidiuretic response to arginine vasopressin (Anti-ADH); assay type: in vivo, rats; details: for Anti-ADH Potency pA2: Table 4, estimated in vivo pA2; for Anti-ADH pA2: Table 1, estimated in vivo pA2 = negative log of effective dose divided by volume of distribution (67 ml/kg)
Protocol: Activity as antidiuretic agonists was determined by intravenous injection of the compounds being evaluated in ethanol-anesthesized water-loaded rats in accordance with Sawyer, Endocrinology, vol. 63 (1958) at 694. Antagonism of the antidiuretic response to subsequent injections of arginine vasopressin was tested by the method of Sawyer et al., Science, vol. 212 (1981) at 49.
(§1) Antagonistic potencies were determined and expressed as "effective doses" and pA2 values. The "effective dose" is defined as the dose (in nanomoles per kilogram) that reduces the response seen from 2x units of agonist injected 20 min after the dose of antagonist to the response with 1x units of agonist. Estimated in vivo "pA2 " values represent the negative logarithms of the effective doses, divided by the estimated volume of distribution (67 ml/kg).

[2] = system: vasopressor response to arginine vasopressin; assay: Antagonism to the vasopressor response (Anti-VP); assay type: in vivo; details: estimated in vivo pA2; for Anti-VP Potency pA2: Table 4, ^+ = mixed; for Anti-VP pA2: Table 1
Protocol: Antagonism to the vasopressor response was estimated in accordance with Dyckes et al., J. Med. Chem., vol. 17 (1974) at 969. The values are expressed as pA2 values, defined as in Schild et al., Br. J. Pharmacol., vol. 2 (1947) at 189.
as §1

## CC[C@H](C)[C@@H]1NC(=O)[C@H](Cc2ccccc2)NC(=O)[C@@H](Cc2ccccc2)NC(=O)CC2(CCCCC2)SSC[C@@H](C(=O)N2CCC[C@H]2C(=O)N[C@@H](CCCNC(=N)N)C(=O)NCCO)NC(=O)[C@H](CC(N)=O)NC1=O [[1-(beta-mercapto-beta,beta-cyclopentamethylenepropionic acid), 2-D-phenylalanine, 4-isoleucine, 8-arginine-N-(beta-hydroxy)ethylamide, 9-desglycinamide] vasopressin] ([dF]FINCPR-NHCH2CH2OH; linker N-5 via X1)
[1]
  Anti-ADH Potency pA2: 8.17 ± 0.10
[2]
  Anti-VP Potency pA2: 7.45 ± 0.12

## CC[C@H](C)[C@@H]1NC(=O)[C@H](Cc2ccccc2)NC(=O)[C@@H](Cc2ccccc2)NC(=O)CC2(CCCCC2)SSC[C@@H](C(=O)N2CCC[C@H]2C(=O)N[C@@H](CCCNC(=N)N)C(=O)NCCCCN)NC(=O)[C@H](CC(N)=O)NC1=O [[1-(beta-mercapto-beta,beta-cyclopentamethylenepropionic acid), 2-D-phenylalanine, 4-isoleucine, 8-arginine-N-(delta-amino)butylamide, 9-desglycinamide] vasopressin] ([dF]FINCPR-{NH(CH2)4NH2}; linker N-5 via X1)
[1]
  Anti-ADH Potency pA2: 8.11 ± 0.03
[2]
  Anti-VP Potency pA2: 7.61 ± 0.08

## CC[C@H](C)[C@@H]1NC(=O)[C@H](Cc2ccccc2)NC(=O)[C@@H](Cc2ccccc2)NC(=O)CC2(CCCCC2)SSC[C@@H](C(=O)N2CCC[C@H]2C(=O)N[C@@H](CCCNC(=N)N)C(=O)O)NC(=O)[C@H](CC(N)=O)NC1=O [[1-(beta-mercapto-beta,beta-cyclopentamethylenepropionic acid), 2-D-phenylalanine, 4-isoleucine, 9-desglycinamide]-arginine vasopressin] ([dF]FINCPR-OH; linker N-5 via X1)
[1]
  Anti-ADH pA2: 7.20 ± 0.10
  Anti-ADH Potency pA2: 8.05 ± 0.09
[2]
  Anti-VP pA2: 6.74 ± 0.08
  Anti-VP Potency pA2: 7.84 ± 0.03

## CC[C@H](C)[C@@H]1NC(=O)[C@H](Cc2ccccc2)NC(=O)[C@@H](Cc2ccccc2)NC(=O)CC2(CCCCC2)SSC[C@@H](C(=O)N2CCC[C@H]2C(=O)N[C@@H](CCCNC(=N)N)C(=O)NCC(=O)NCCN)NC(=O)[C@H](CC(N)=O)NC1=O [[1-(beta-mercapto-beta,beta-cyclopentamethylenepropionic acid), 2-D-phenylalanine, 4-isoleucine, 9-glycine-N-(beta-amino)ethylamide]-arginine vasopressin] ([dF]FINCPRG-Ethylenediamine; linker N-5 via X1)
[1]
  Anti-ADH Potency pA2: 8.10 ± 0.10
[2]
  Anti-VP Potency pA2: 7.58 ± 0.07

## CC[C@H](C)[C@@H]1NC(=O)[C@H](Cc2ccccc2)NC(=O)[C@@H](Cc2ccccc2)NC(=O)CC2(CCCCC2)SSC[C@@H](C(=O)N2CCC[C@H]2C(=O)N[C@@H](CCCNC(=N)N)C(=O)NCC(=O)NCCO)NC(=O)[C@H](CC(N)=O)NC1=O [[1-(beta-mercapto-beta,beta-cyclopentamethylenepropionic acid), 2-D-phenylalanine, 4-isoleucine, 9-glycine-N-(beta-hydroxy)ethylamide]-arginine vasopressin] ([dF]FINCPRG-NHCH2CH2OH; linker N-5 via X1)
[1]
  Anti-ADH Potency pA2: 8.20 ± 0.12
[2]
  Anti-VP Potency pA2: 6.92 ± 0.07

## CCCCNC(=O)CNC(=O)[C@H](CCCNC(=N)N)NC(=O)[C@@H]1CCCN1C(=O)[C@@H]1CSSC2(CCCCC2)CC(=O)N[C@H](Cc2ccccc2)C(=O)N[C@@H](Cc2ccccc2)C(=O)N[C@@H]([C@@H](C)CC)C(=O)N[C@@H](CC(N)=O)C(=O)N1 [[1-(beta-mercapto-beta,beta-cyclopentamethylenepropionic acid), 2-D-phenylalanine, 4-isoleucine, 9-glycine-N-(n-butyl)amide]-arginine vasopressin] ([dF]FINCPRG-NHBu; linker N-5 via X1)
[1]
  Anti-ADH Potency pA2: 7.66 ± 0.05
[2]
  Anti-VP Potency pA2: 6.80 ± 0.08

## CC[C@H](C)[C@@H]1NC(=O)[C@H](Cc2ccccc2)NC(=O)[C@@H](Cc2ccccc2)NC(=O)CC2(CCCCC2)SSC[C@@H](C(=O)N2CCC[C@H]2C(=O)N[C@@H](CCCNC(=N)N)C(=O)NCC(=O)NC)NC(=O)[C@H](CC(N)=O)NC1=O [[1-(beta-mercapto-beta,beta-cyclopentamethylenepropionic acid), 2-D-phenylalanine, 4-isoleucine, 9-glycine-N-methylamide]-arginine vasopressin] ([dF]FINCPRG-NHMe; linker N-5 via X1)
[1]
  Anti-ADH Potency pA2: 8.07 ± 0.07
[2]
  Anti-VP Potency pA2: 6.22

## CC[C@H](C)[C@@H]1NC(=O)[C@H](Cc2ccccc2)NC(=O)[C@@H](Cc2ccccc2)NC(=O)CC2(CCCCC2)SSC[C@@H](C(=O)N2CCC[C@H]2C(=O)N[C@@H](CCCNC(=N)N)C(=O)NCC(=O)NCC(N)=O)NC(=O)[C@H](CC(N)=O)NC1=O [[1-(beta-mercapto-beta,beta-cyclopentamethylenepropionic acid), 2-D-phenylalanine, 4-isoleucine, 9-glycine]-arginine vasopressinyl glycinamide] ([dF]FINCPRGG-NH2; linker N-5 via X1)
[1]
  Anti-ADH Potency pA2: 7.83 ± 0.04
[2]
  Anti-VP Potency pA2: 7.72

## CCCCNC(=O)[C@H](CCCNC(=N)N)NC(=O)[C@@H]1CCCN1C(=O)[C@@H]1CSSC2(CCCCC2)CC(=O)N[C@H](Cc2ccc(OCC)cc2)C(=O)N[C@@H](Cc2ccccc2)C(=O)N[C@@H]([C@@H](C)CC)C(=O)N[C@@H](CC(N)=O)C(=O)N1 [[1-beta-mercapto-beta,beta-cyclopentamethylenepropionic acid), 2-(D-O-ethyl)tyrosine, 4-isoleucine, 8-arginine-N-(n-butyl)amide, 9-desglycinamide] vasopressin] ([dY](Et)FINCPR-NHBu; linker N-5 via X1)
[1]
  Anti-ADH Potency pA2: 7.62 ± 0.09
[2]
  Anti-VP Potency pA2: 7.51 ± 0.08

## CC[C@H](C)[C@@H]1NC(=O)[C@H](Cc2ccccc2)NC(=O)[C@@H](Cc2ccc(O)cc2)NC(=O)CC2(CCCCC2)SSC[C@@H](C(=O)N2CCC[C@H]2C(=O)N[C@@H](CCCNC(=N)N)C(=O)NCCN)NC(=O)[C@H](CC(N)=O)NC1=O [[1-beta-mercapto-beta,beta-cyclopentamethylenepropionic acid, 2-D-tyrosine, 4-isoleucine, 8-arginine-N-(beta-amino)ethylamide, 9-desglycinamide] vasopressin] ([dY]FINCPR-Ethylenediamine; linker N-5 via X1)
[1]
  Anti-ADH Potency pA2: 7.81 ± 0.06
[2]
  Anti-VP Potency pA2: 7.93 ± 0.08

## CC[C@H](C)[C@@H]1NC(=O)[C@H](Cc2ccccc2)NC(=O)[C@@H](Cc2ccccc2)NC(=O)CC2(CCCCC2)SSC[C@@H](C(=O)N2CCC[C@H]2C(=O)N[C@@H](CCCNC(=N)N)C(=O)NCC(=O)O)NC(=O)[C@H](CC(N)=O)NC1=O [d(CH2)5 [D-Phe^2,Ile^ 4]AVP acid, [1-(beta-mercapto-beta,beta-cyclopentamethylenepropionic acid), 2-D-phenylalanine, 4-isoleucine, 9-glycine]-arginine vasopressin] ([dF]FINCPRG-OH; linker N-5 via X1)
[1]
  Anti-ADH pA2: 7.11 ± 0.11
[2]
  Anti-VP pA2: 6.94 ± 0.08

## CC[C@H](C)[C@@H]1NC(=O)[C@H](Cc2ccccc2)NC(=O)[C@@H](Cc2ccccc2)NC(=O)CC2(CCCCC2)SSC[C@@H](C(=O)N2CCC[C@H]2C(=O)N[C@@H](CCCNC(=N)N)C(=O)NCC(N)=O)NC(=O)[C@H](CC(N)=O)NC1=O [d(CH2)5 [D-Phe^2,Ile^ 4]AVP, [1-(beta-mercapto-beta,beta-cyclopentamethylenepropionic acid), 2-D-phenylalanine, 4-isoleucine]-arginine vasopressin, reference compound] ([dF]FINCPRG-NH2; linker N-5 via X1)
[1]
  Anti-ADH pA2: 8.24 ± 0.08
[2]
  Anti-VP pA2: 7.86 ± 0.05

## CCOc1ccc(C[C@H]2NC(=O)CC3(CCCCC3)SSC[C@@H](C(=O)N3CCC[C@H]3C(=O)N[C@@H](CCCNC(=N)N)C(=O)NCC(N)=O)NC(=O)[C@H](CC(N)=O)NC(=O)[C@H](C(C)C)NC(=O)[C@H](Cc3ccccc3)NC2=O)cc1 [d(CH2)5 [D-Tyr(Et)^2]VAVP, [1-(beta-mercapto-beta,beta-cyclopentamethylenepropionic acid), 2-D-(O-ethyl)tyrosine, 4-valine]-arginine vasopressin, reference compound] ([dY](Et)FVNCPRG-NH2; linker N-5 via X1)
[1]
  Anti-ADH pA2: 7.81 ± 0.07
[2]
  Anti-VP pA2: 8.22 ± 0.12

## CCOc1ccc(C[C@@H]2NC(=O)CC3(CCCCC3)SSC[C@@H](C(=O)N3CCC[C@H]3C(=O)N[C@@H](CCCNC(=N)N)C(=O)NCC(N)=O)NC(=O)[C@H](CC(N)=O)NC(=O)[C@H](C(C)C)NC(=O)[C@H](Cc3ccccc3)NC2=O)cc1 [d(CH2)5 [Tyr(Et)]^2 VAVP, [1-(beta-mercapto-beta,beta-cyclopentamethylenepropionic acid), 2-(O-ethyl)tyrosine, 4-valine]-arginine vasopressin, reference compound] (Y(Et)FVNCPRG-NH2; linker N-5 via X1)
[1]
  Anti-ADH pA2: 7.57 ± 0.06
[2]
  Anti-VP pA2: 8.16 ± 0.09
